Measured values as given in ChEMBL document CHEMBL3525899, “Identification of the cytochrome P450 and other enzymes involved in the in vitro oxidative metabolism of a novel antidepressant, Lu AA21004” (Drug Metab Dispos, 2012).

Experiments:
Cytochrome P450 2C19 = Cytochrome P450 2C19 (Homo sapiens, UniProt P33261); test: Activity of human recombinant CYP2C19 expressed in microsomes isolated from human AHH-1 cells assessed as enzyme-mediated compound formation treated with Lu AA21004 at 8 to 50 uM after 120 mins by HPLC/MS-MS analysis in presence of NADPH regenerating system with NADP+; assay type: ADME, cell-free; conditions: 2 h
Liver microsome [1] = test: Uncompetitive substrate inhibition in pooled human liver microsomes assessed as formation of 3-methyl-4-(2-(piperazin-1-yl)phenylthio)benzoic acid after 20 mins by Michaelis-Menten plot analysis in presence of NADPH regenerating system with NADP+; assay type: ADME
Liver microsome [2] = test: Drug metabolism in pooled human liver microsomes assessed as formation of 3-methyl-4-(2-(piperazin-1-yl)phenylthio)benzoic acid after 20 mins by Michaelis-Menten plot analysis in presence of NADPH regenerating system with NADP+; assay type: ADME; conditions: read-out: Km(app)
[3] = Drug metabolism in pooled human liver S9 fractions assessed as formation of 3-methyl-4-(2-(piperazin-1-yl)phenylthio)benzoic acid per mg of protein after 20 mins by Michaelis-Menten plot analysis in presence of NADPH regenerating system with NADP+; assay type: ADME, subcellular, Liver S9 fraction; conditions: s9, 20 min
[4] = Drug metabolism in pooled human liver S9 fractions assessed as formation of 3-methyl-4-(2-(piperazin-1-yl)phenylthio)benzoic acid after 20 mins by Michaelis-Menten plot analysis in presence of NADPH regenerating system with NADP+; assay type: ADME, subcellular, Liver S9 fraction; conditions: s9, 20 min, read-out: Km(app)
Cytochrome P450 2C9 = Cytochrome P450 2C9 (Homo sapiens, UniProt P11712); test: Activity of human recombinant CYP2C9 expressed in microsomes isolated from human AHH-1 cells assessed as enzyme-mediated compound formation treated with Lu AA21004 at 8 to 50 uM after 120 mins by HPLC/MS-MS analysis in presence of NADPH regenerating system with NADP+; assay type: ADME, cell-free; conditions: 2 h
Liver microsome [5] = test: Drug metabolism in phenotyped human liver microsomes assessed as formation of 3-methyl-4-(2-(piperazin-1-yl)phenylthio)benzoic acid at 8 to 50 uM after 15 mins by HPLC/MS-MS analysis in presence of NADPH regenerating system with NADP+; assay type: ADME; conditions: 0.25 h
Liver microsome [6] = test: Drug metabolism in human liver microsomes assessed as formation of 3-methyl-4-(2-(piperazin-1-yl)phenylthio)benzoic acid at 50 uM after 20 mins by HPLC/MS-MS analysis in absence of NADPH regenerating system with NADP+; assay type: ADME
Liver microsome [7] = test: Drug metabolism in pooled human liver microsomes assessed as formation of 3-methyl-4-(2-(piperazin-1-yl)phenylthio)benzoic acid per mg of protein after 20 mins by Michaelis-Menten plot analysis in presence of NADPH regenerating system with NADP+; assay type: ADME
[8] = Intrinsic clearance in pooled human liver S9 fractions assessed as Vmax(app)/Km(app) for formation of 3-methyl-4-(2-(piperazin-1-yl)phenylthio)benzoic acid per mg of protein after 20 mins by Michaelis-Menten plot analysis in presence of NADPH regenerating system with NADP+; assay type: ADME, subcellular, Liver S9 fraction; conditions: s9, 20 min
Liver microsome [9] = test: Drug metabolism in human liver microsomes assessed as formation of 3-methyl-4-(2-(piperazin-1-yl)phenylthio)benzoic acid at 50 uM after 20 mins by HPLC/MS-MS analysis in presence of NADPH regenerating system with NADP+; assay type: ADME
[10] = Drug metabolism in human liver S9 fractions assessed as formation of 3-methyl-4-(2-(piperazin-1-yl)phenylthio)benzoic acid at 8 to 50 uM after 20 mins by HPLC/MS-MS analysis in absence of NADPH regenerating system with NAD+; assay type: ADME, tissue-based; conditions: s9, 20 min
[11] = Drug metabolism in pooled human liver S9 fractions assessed as formation of 3-methyl-4-(2-(piperazin-1-yl)phenylthio)benzoic acid at 2 to 50 uM after 20 mins by HPLC/MS-MS analysis in presence of NADPH regenerating system with NAD+, aldehyde dehydrogenase inhibitor disulfiram, aldehyde oxidase inhibitor raloxifene and alcohol dehydrogenase inhibitor 4-methylpyrazole; assay type: ADME, subcellular, Liver S9 fraction; conditions: s9, 20 min
[12] = Drug metabolism in pooled human liver S9 fractions assessed as formation of 3-methyl-4-(2-(piperazin-1-yl)phenylthio)benzoic acid at 2 to 50 uM after 20 mins by HPLC/MS-MS analysis in presence of NADPH regenerating system with NAD+ and xanthine oxidase inhibitor allopurinol; assay type: ADME, subcellular, Liver S9 fraction; conditions: s9, 20 min
Cytochrome P450 2D6 = Cytochrome P450 2D6 (Homo sapiens, UniProt P10635); test: Activity of human recombinant CYP2D6 expressed in microsomes isolated from human AHH-1 cells assessed as enzyme-mediated compound formation treated with Lu AA21004 at 8 to 50 uM after 120 mins by HPLC/MS-MS analysis in presence of NADPH regenerating system with NADP+; assay type: ADME, cell-free; conditions: 2 h
Liver microsome [13] = test: Drug level in pooled human liver microsomes treated with Lu AA21004 at 100 uM after 30 to 180 mins by HPLC/MS-MS analysis in presence of NADPH regenerating system with NADP+; assay type: ADME
Liver microsome [14] = test: Drug level in phenotyped human liver microsomes treated with Lu AA21004 at 8 to 50 uM after 60 mins by HPLC/MS-MS analysis in presence of NADPH regenerating system with NADP+; assay type: ADME; conditions: 1 h
Liver microsome [15] = test: Intrinsic clearance in pooled human liver microsomes assessed as Vmax(app)/Km(app) for formation of 3-methyl-4-(2-(piperazin-1-yl)phenylthio)benzoic acid per mg of protein after 20 mins by Michaelis-Menten plot analysis in presence of NADPH regenerating system with NADP+; assay type: ADME
[16] = Drug metabolism in human liver S9 fractions assessed as formation of 3-methyl-4-(2-(piperazin-1-yl)phenylthio)benzoic acid at 8 to 50 uM after 20 mins by HPLC/MS-MS analysis in presence of NADPH regenerating system with NAD+; assay type: ADME, subcellular, Liver S9 fraction; conditions: s9, 20 min
Cytochrome P450 2A6 = molecular target: T1, Cytochrome P450 2A6 (Homo sapiens, UniProt P11509); test: Activity of human recombinant CYP2A6 expressed in microsomes isolated from human AHH-1 cells assessed as enzyme-mediated compound formation treated with Lu AA21004 at 8 to 50 uM after 120 mins by HPLC/MS-MS analysis in presence of NADPH regenerating system with NADP+; assay type: ADME, cell-free; conditions: 2 h
T1 sequence (P11509 whole entry): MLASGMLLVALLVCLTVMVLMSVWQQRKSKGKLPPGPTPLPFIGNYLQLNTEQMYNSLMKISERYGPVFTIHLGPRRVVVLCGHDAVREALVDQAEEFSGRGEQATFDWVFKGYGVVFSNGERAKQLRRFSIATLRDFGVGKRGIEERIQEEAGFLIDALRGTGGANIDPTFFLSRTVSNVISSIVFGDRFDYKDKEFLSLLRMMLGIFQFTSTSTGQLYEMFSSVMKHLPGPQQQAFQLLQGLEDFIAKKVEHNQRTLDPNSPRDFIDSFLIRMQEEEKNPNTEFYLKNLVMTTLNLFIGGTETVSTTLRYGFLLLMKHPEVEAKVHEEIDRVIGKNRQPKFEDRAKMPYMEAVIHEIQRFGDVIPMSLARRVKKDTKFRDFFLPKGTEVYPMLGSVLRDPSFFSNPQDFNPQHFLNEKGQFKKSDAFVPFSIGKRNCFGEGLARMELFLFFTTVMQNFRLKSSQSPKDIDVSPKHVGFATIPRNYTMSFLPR

Cytochrome P450 3A4 = Cytochrome P450 3A4 (Homo sapiens, UniProt P08684); test: Activity of human recombinant CYP3A4 expressed in microsomes isolated from human AHH-1 cells assessed as enzyme-mediated compound formation treated with Lu AA21004 at 8 to 50 uM after 120 mins by HPLC/MS-MS analysis in presence of NADPH regenerating system with NADP+; assay type: ADME, cell-free; conditions: 2 h
Cytochrome P450 2C8 = molecular target: T2, Cytochrome P450 2C8 (Homo sapiens, UniProt P10632); test: Activity of human recombinant CYP2C8 expressed in microsomes isolated from human AHH-1 cells assessed as enzyme-mediated compound formation treated with Lu AA21004 at 8 to 50 uM after 120 mins by HPLC/MS-MS analysis in presence of NADPH regenerating system with NADP+; assay type: ADME, cell-free; conditions: 2 h
T2 sequence (P10632 whole entry): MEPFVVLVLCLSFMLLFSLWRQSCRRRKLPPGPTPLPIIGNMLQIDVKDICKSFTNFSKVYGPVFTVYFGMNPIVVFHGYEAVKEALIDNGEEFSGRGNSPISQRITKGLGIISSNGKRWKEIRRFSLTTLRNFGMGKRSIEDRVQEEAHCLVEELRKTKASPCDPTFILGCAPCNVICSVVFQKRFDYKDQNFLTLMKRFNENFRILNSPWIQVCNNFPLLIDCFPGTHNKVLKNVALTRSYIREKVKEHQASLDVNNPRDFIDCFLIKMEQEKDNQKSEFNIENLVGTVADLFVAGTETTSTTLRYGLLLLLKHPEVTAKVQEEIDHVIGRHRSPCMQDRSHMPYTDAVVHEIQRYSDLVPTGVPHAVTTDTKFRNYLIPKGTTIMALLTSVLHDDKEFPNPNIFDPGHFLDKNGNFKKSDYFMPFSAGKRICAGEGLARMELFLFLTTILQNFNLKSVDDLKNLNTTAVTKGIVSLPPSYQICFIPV

Cytochrome P450 2B6 = molecular target: T3, Cytochrome P450 2B6 (Homo sapiens, UniProt P20813); test: Activity of human recombinant CYP2B6 expressed in microsomes isolated from human AHH-1 cells assessed as enzyme-mediated compound formation treated with Lu AA21004 at 8 to 50 uM after 120 mins by HPLC/MS-MS analysis in presence of NADPH regenerating system with NADP+; assay type: ADME, cell-free; conditions: 2 h
T3 sequence (P20813 whole entry): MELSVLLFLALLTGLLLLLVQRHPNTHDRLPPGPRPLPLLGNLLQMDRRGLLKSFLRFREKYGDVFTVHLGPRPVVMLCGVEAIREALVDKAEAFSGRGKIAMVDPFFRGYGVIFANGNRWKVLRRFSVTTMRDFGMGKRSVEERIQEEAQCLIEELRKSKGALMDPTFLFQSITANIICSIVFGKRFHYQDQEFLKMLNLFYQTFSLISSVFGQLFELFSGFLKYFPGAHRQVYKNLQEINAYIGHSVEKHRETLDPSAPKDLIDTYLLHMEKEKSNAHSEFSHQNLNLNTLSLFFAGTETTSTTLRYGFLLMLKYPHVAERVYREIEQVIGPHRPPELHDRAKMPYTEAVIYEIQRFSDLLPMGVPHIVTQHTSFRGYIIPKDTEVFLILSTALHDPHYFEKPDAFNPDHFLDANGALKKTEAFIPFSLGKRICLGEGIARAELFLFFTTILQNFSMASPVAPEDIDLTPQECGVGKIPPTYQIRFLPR

Chain of Cytochrome P450 2C9 (P11712 whole entry): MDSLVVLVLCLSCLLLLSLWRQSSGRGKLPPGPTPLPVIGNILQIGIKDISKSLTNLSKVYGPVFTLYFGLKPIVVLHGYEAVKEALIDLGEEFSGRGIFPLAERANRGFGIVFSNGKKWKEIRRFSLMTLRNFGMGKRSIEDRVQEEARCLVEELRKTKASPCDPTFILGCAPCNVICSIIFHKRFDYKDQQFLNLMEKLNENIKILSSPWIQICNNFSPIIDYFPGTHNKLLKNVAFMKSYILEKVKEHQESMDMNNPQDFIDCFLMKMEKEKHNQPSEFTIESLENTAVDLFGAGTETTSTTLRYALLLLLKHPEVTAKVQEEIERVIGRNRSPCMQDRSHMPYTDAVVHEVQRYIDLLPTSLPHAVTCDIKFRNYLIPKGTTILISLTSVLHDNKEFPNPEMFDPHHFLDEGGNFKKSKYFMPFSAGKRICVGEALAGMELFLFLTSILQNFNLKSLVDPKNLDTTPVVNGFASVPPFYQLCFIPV
Chain of Cytochrome P450 2C19 (P33261 whole entry): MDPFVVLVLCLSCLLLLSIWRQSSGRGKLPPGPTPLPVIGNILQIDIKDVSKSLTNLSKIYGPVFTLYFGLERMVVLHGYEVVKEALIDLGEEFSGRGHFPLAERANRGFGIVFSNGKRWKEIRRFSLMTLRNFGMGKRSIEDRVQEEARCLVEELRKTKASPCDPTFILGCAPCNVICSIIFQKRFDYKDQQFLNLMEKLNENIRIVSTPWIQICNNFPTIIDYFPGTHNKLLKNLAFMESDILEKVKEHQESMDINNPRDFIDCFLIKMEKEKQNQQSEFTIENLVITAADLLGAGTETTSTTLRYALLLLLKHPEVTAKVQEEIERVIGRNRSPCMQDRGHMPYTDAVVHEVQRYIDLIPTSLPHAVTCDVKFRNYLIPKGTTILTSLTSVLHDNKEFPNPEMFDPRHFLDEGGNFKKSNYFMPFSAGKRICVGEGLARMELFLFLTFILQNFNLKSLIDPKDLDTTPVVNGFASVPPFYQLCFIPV
Chain of Cytochrome P450 2D6 (P10635 whole entry): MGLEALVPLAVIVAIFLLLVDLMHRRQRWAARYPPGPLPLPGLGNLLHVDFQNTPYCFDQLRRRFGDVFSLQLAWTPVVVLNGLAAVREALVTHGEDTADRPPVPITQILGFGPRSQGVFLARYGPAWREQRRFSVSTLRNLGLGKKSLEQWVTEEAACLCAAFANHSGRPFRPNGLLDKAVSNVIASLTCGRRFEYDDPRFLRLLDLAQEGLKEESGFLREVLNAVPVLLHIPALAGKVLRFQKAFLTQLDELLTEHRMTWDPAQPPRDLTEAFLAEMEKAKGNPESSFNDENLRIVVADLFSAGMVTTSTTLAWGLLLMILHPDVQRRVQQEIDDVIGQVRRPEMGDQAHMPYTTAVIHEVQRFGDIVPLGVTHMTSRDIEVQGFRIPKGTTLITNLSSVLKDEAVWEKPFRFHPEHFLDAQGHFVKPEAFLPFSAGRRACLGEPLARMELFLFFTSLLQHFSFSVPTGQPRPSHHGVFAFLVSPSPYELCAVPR
Chain of Cytochrome P450 3A4 (P08684 whole entry): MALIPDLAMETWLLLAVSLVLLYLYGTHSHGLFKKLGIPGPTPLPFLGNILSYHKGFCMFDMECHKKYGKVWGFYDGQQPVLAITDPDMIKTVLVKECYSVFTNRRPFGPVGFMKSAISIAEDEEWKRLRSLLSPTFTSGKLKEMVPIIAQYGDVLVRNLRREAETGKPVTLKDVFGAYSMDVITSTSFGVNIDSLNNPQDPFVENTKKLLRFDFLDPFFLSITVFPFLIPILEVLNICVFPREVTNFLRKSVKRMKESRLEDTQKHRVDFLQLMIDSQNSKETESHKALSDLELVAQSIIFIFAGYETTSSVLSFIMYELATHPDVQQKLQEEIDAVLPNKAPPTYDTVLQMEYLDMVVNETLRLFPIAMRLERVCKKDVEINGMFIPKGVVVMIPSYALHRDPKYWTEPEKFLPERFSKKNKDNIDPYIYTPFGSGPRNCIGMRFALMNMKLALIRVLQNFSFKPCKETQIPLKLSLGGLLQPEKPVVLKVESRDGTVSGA

With `Cc1cc(CO)ccc1Sc1ccccc1N1CCNCC1` the Drug metabolism (Cytochrome P450 2C19) was “metabolite_detected”, the Ki (Liver microsome [1]) was 275 µM and the Km (Liver microsome [2]) was 95 µM. For the same compound, the “Vmax(app)” value [3] was 1567 pmol/min, the Km [4] was 1700 nM and the Drug metabolism (Cytochrome P450 2C9) was “metabolite_detected”. The Drug metabolism (Liver microsome [5]) was “metabolite_detected”, the Drug metabolism (Liver microsome [6]) was “metabolite_detected” and the “Vmax(app)” value (Liver microsome [7]) was 59 pmol/min. For the same compound, the Vmax/Km [8] was 922 µL/min, the Drug metabolism (Liver microsome [9]) was “metabolite_detected” and the Drug metabolism [10] was “metabolite_detected”. For the same compound, the Drug metabolism [11] was “metabolite_not_detected”, the Drug metabolism [12] was “metabolite_detected” and the Drug metabolism (Cytochrome P450 2D6) was “metabolite_detected”. The Drug metabolism (Liver microsome [13]) was “metabolite_detected”, the Drug metabolism (Liver microsome [14]) was “metabolite_detected” and the Vmax/Km (Liver microsome [15]) was 0.621 µL/min. For the same compound, the Drug metabolism [16] was “metabolite_detected”.

For `Cc1ccc([S+]([O-])c2ccccc2N2CCNCC2)c(C)c1.O=C(O)/C=C/C(=O)O` (centres undefined), the Drug metabolism (Cytochrome P450 2A6) was “metabolite_detected”, the Drug metabolism (Cytochrome P450 3A4) was “metabolite_detected” and the Drug metabolism (Cytochrome P450 2C8) was “metabolite_detected”. The Drug metabolism (Liver microsome [13]) was “metabolite_detected” and the Drug metabolism (Liver microsome [14]) was “metabolite_detected”.

In the case of `Cc1ccc(Sc2ccccc2N2CCN(O)CC2)c(C)c1`, the Drug metabolism (Cytochrome P450 2C19) is reported as “metabolite_detected”, the Drug metabolism (Cytochrome P450 2B6) is reported as “metabolite_detected” and the Drug metabolism (Cytochrome P450 2C9) is reported as “metabolite_detected”. The Drug metabolism (Liver microsome [13]) was “metabolite_detected” and the Drug metabolism (Liver microsome [14]) was “metabolite_detected”.
